Assay results published in US10632195B2, “Pharmaceutical device for electric-field assisted administration of Tapentadol and method of administering Tapentadol with same” (Gruenenthal GmbH, priority 2012, dated 2020).
Values joined by “and” are separate entries in the source; they are usually repeats but may differ in a detail not shown here. Equal values may be shown once. Where a name gives a salt, the structure may show the parent alone.

Assay: passive transdermal delivery of Tapentadol hydrochloride, 24 hours, no current (comparative example 1b, passive control)
Type: in vitro ADME, pig
Conditions: for cumulative, passive delivery across the skin, Mean / cumulative, passive delivery across the skin, as tapentadol base, Mean / drug flux across the skin, Mean / drug flux across the skin, as tapentadol base, Mean: n=2; for cumulative, passive delivery across the skin, Mean / cumulative, passive delivery across the skin, as tapentadol base, Mean / drug flux across the skin, Mean / drug flux across the skin, as tapentadol base, Mean / drug flux across the skin / cumulative, passive delivery across the skin: patch area 0.64 cm^2; for drug flux across the skin, Mean / drug flux across the skin, as tapentadol base, Mean / drug flux across the skin: passive, no current; for drug flux across the skin / cumulative, passive delivery across the skin: single cells 1-2
Experimental: For comparison, the rate of transdermal delivery of Tapentadol hydrochloride for a period of 24 hours has been determined without any means of electric-field-assisted administration (passive control).
The flux of Tapentadol hydrochloride from passive diffusion alone was measured (n=2). The experimental set-up was exactly as previously described, except that no electrodes were placed in the diffusion cell and no current was applied. The temperature was held at 37° C. The receptor solution was sampled and assayed at 0.5, 1, 1.5, 2, 3, 4, 5, 6, 7, 8 and 24 hours. 1 ml of receptor solution was removed and replaced with fresh PBS at each sampling point.

Which “cumulative, passive delivery across the skin, Mean” value (0.5 h) does the source give for `CC[C@@H](c1cccc(O)c1)[C@@H](C)CN(C)C` [Tapentadol hydrochloride] here?
The value was 0 µg.

What about the “cumulative, passive delivery across the skin, as tapentadol base, Mean” value (“cumulative … as tapentadol base, Mean” for short) (0.5 h) of the same compound?
The value was 0 µg.

And the “drug flux across the skin, Mean” value (0.5 h)?
The value was 0 µg/h.

What about the “drug flux across the skin, as tapentadol base, Mean” value (0.5 h) of the same compound?
The value was 0 µg/h.

What about the “drug flux across the skin” value (0.5 h) of the same compound?
The value was 0 µg/h.

And the “cumulative, passive delivery across the skin” value (0.5 h)?
The value was 0 µg.

And the “cumulative, passive delivery across the skin, Mean” value (1 h)?
The value was 0 µg.

What about the “cumulative … as tapentadol base, Mean” value (1 h) of the same compound?
Its value is 0 µg.

And the “drug flux across the skin, Mean” value (1 h)?
The value was 0 µg/h.

And the “drug flux across the skin, as tapentadol base, Mean” value (1 h)?
The value was 0 µg/h.

What about the “drug flux across the skin” value (1 h) of the same compound?
Its value is 0 µg/h.

And the “cumulative, passive delivery across the skin” value (1 h)?
The value was 0 µg.

And the “cumulative, passive delivery across the skin, Mean” value (1.5 h)?
Its value is 0 µg.

What about the “cumulative … as tapentadol base, Mean” value (1.5 h) of the same compound?
Its value is 0 µg.

And the “drug flux across the skin, Mean” value (1.5 h)?
Its value is 0 µg/h.

And the “drug flux across the skin, as tapentadol base, Mean” value (1.5 h)?
Its value is 0 µg/h.

What about the “drug flux across the skin” value (1.5 h) of the same compound?
The value was 0 µg/h.

And the “cumulative, passive delivery across the skin” value (1.5 h)?
Its value is 0 µg.

And the “cumulative, passive delivery across the skin, Mean” value (2 h)?
The value was 0 µg.

And the “cumulative … as tapentadol base, Mean” value (2 h)?
Its value is 0 µg.

And the “drug flux across the skin, Mean” value (2 h)?
The value was 0 µg/h.

What about the “drug flux across the skin, as tapentadol base, Mean” value (2 h) of the same compound?
Its value is 0 µg/h.

What about the “drug flux across the skin” value (2 h) of the same compound?
Its value is 0 µg/h.

What about the “cumulative, passive delivery across the skin” value (2 h) of the same compound?
Its value is 0 µg.

And the “cumulative, passive delivery across the skin, Mean” value (3 h)?
Its value is 2 µg.

And the “cumulative … as tapentadol base, Mean” value (3 h)?
Its value is 1 µg.

What about the “drug flux across the skin, Mean” value (3 h) of the same compound?
Its value is 1 µg/h.

What about the “drug flux across the skin, as tapentadol base, Mean” value (3 h) of the same compound?
Its value is 1 µg/h.

And the “drug flux across the skin” value (3 h)?
Its value is 1 µg/h.

What about the “cumulative, passive delivery across the skin” value (3 h, listed as Tapentadol HCl, hydrochloride) of the same compound?
Its value is 2 µg and 1 µg.

And the “cumulative, passive delivery across the skin, Mean” value (4 h)?
The value was 4 µg.

And the “cumulative … as tapentadol base, Mean” value (4 h)?
Its value is 3 µg.

What about the “drug flux across the skin, Mean” value (4 h) of the same compound?
Its value is 2 µg/h.

What about the “drug flux across the skin, as tapentadol base, Mean” value (4 h) of the same compound?
The value was 2 µg/h.

And the “drug flux across the skin” value (4 h)?
Its value is 2 µg/h.

And the “cumulative, passive delivery across the skin” value (4 h, listed as Tapentadol HCl, hydrochloride)?
Its value is 4 µg and 3 µg.

And the “cumulative, passive delivery across the skin, Mean” value (5 h)?
The value was 6 µg.

What about the “cumulative … as tapentadol base, Mean” value (5 h) of the same compound?
Its value is 5 µg.

What about the “drug flux across the skin, Mean” value (5 h) of the same compound?
Its value is 3 µg/h.

And the “drug flux across the skin, as tapentadol base, Mean” value (5 h)?
The value was 2 µg/h.

And the “drug flux across the skin” value (5 h, hydrochloride)?
Its value is 3 µg/h and 2 µg/h.

What about the “cumulative, passive delivery across the skin” value (5 h, listed as Tapentadol HCl, hydrochloride) of the same compound?
The value was 7 µg and 5 µg.

What about the “cumulative, passive delivery across the skin, Mean” value (6 h) of the same compound?
Its value is 9 µg.

And the “cumulative … as tapentadol base, Mean” value (6 h)?
The value was 8 µg.

What about the “drug flux across the skin, Mean” value (6 h) of the same compound?
Its value is 3 µg/h.

What about the “drug flux across the skin, as tapentadol base, Mean” value (6 h) of the same compound?
The value was 3 µg/h.

What about the “drug flux across the skin” value (6 h, hydrochloride) of the same compound?
The value was 4 µg/h and 3 µg/h.

And the “cumulative, passive delivery across the skin” value (6 h, listed as Tapentadol HCl, hydrochloride)?
Its value is 11 µg and 8 µg.

What about the “cumulative, passive delivery across the skin, Mean” value (7 h) of the same compound?
The value was 13 µg.

What about the “cumulative … as tapentadol base, Mean” value (7 h) of the same compound?
The value was 11 µg.

And the “drug flux across the skin, Mean” value (7 h)?
The value was 3 µg/h.

And the “drug flux across the skin, as tapentadol base, Mean” value (7 h)?
The value was 3 µg/h.

What about the “drug flux across the skin” value (7 h, hydrochloride) of the same compound?
Its value is 4 µg/h and 3 µg/h.

What about the “cumulative, passive delivery across the skin” value (7 h, listed as Tapentadol HCl, hydrochloride) of the same compound?
Its value is 14 µg and 11 µg.

And the “cumulative, passive delivery across the skin, Mean” value (8 h)?
Its value is 18 µg.

And the “cumulative … as tapentadol base, Mean” value (8 h)?
Its value is 15 µg.

And the “drug flux across the skin, Mean” value (8 h)?
The value was 5 µg/h.

What about the “drug flux across the skin, as tapentadol base, Mean” value (8 h) of the same compound?
Its value is 4 µg/h.

What about the “drug flux across the skin” value (8 h, hydrochloride) of the same compound?
Its value is 5 µg/h and 4 µg/h.

What about the “cumulative, passive delivery across the skin” value (8 h, listed as Tapentadol HCl, hydrochloride) of the same compound?
Its value is 20 µg and 15 µg.

What about the “cumulative, passive delivery across the skin, Mean” value (24 h) of the same compound?
The value was 186 µg.

What about the “cumulative … as tapentadol base, Mean” value (24 h) of the same compound?
The value was 159 µg.

And the “drug flux across the skin, Mean” value (24 h)?
Its value is 11 µg/h.

And the “drug flux across the skin, as tapentadol base, Mean” value (24 h)?
The value was 9 µg/h.

What about the “drug flux across the skin” value (24 h, hydrochloride) of the same compound?
The value was 11 µg/h and 10 µg/h.

And the “cumulative, passive delivery across the skin” value (24 h, listed as Tapentadol HCl, hydrochloride)?
The value was 192 µg and 179 µg.

What about the “rate of passive diffusion” value (by 24 hours) of the same compound?
The value was 16 μg/h/cm2.

What about the “time within which steady state flux was not reached” value (comparative example 1b, passive diffusion) of the same compound?
Its value is > 8 h.
